This passage reports growth of test-strain and logP results from patent EP4316456A1, “BIOLOGICALLY ACTIVE QUADROCOMPLEX FOR REGULATING THE BIODIVERSITY OF SKIN MICROBIOTA” (SkyLab AG, priority 2021, dated 2022).

Series [1] deals with Staphylococcus epidermidis. Description: Effect of antibacterial basic samples on growth of hand skin microflora, double dilution method. In kind it is cell-based. The arrangement: key: ++: no growth; +: depressed growth in most areas; +: retarded growth in some areas; confluent growth-of test microorganisms. The note with it: 5% solution of sample in purified water with 0.5% Tween 80, 30 minutes; 48 hours at 37 degrees Celsius. The protocol:
(§1) A mixture consisting of purified water and 0.5% Tween 80 was used as a base to include the components of the complex. Samples were prepared using a magnetic stirrer by solubilizing the components of the quad complex in Tween 80 and gradually introducing them into purified water at 350 rpm. The stability of the samples was evaluated visually, by the absence of separation of the fatty phase from the aqueous solution. 2 strains of microorganisms of normal microflora, widely represented on the skin of the hands, were selected: Staphylococcus epidermidis and Micrococcus luteus. Microorganisms of transient opportunistic microflora present on the skin of the hands were also selected: Staphylococcus aureus, Escherichia coli and fungi of Candida albicans genus. Microorganisms were obtained by washing from the skin of the hands of subjects or using standard strains, cultivating isolated microorganisms and counting the number of grown colonies of microorganisms. The method of the analysis is based on the double dilution method and consists in preparing a suspension of bacterial cells of selected microorganisms (S. aureus, E. coli, C. albicans, S. epidermidis, M. luteus) separately at a concentration of 1×10^9 cells/ml. Next, 0.2 ml of a suspension of bacterial cells is added to 1.8 ml of a 5% solution of antibacterial components. In 30 minutes, 1 ml of the resulting mixture is added to a test tube with 9 ml of sterile saline 0.9%. In 15 more minutes, a series of dilutions is prepared in sterile saline to a concentration of 10^3 cells/ml. 0.1 ml of a solution of the initial concentration and successive dilutions is added to the surface of cups with a special nutrient medium for the growth of selected microorganisms separately. The cultures are incubated for 48 hours at 37 degrees Celsius and the colonies are counted by the standard method. The parameter for the overall assessment of the effect of the biologically active quad complex on the growth of representatives of the normal microflora was the presence or no growth of microorganisms, determined by the microbiologist based on the results of the study. The indicator of bacterial growth allows evaluating the effect of microflora on microorganisms and drawing a conclusion about the effect of the quad complex on the microflora of hand skin. The general positive trend in the use of the components of the claimed quad complex is the absence of a negative effect on the normal microflora of the skin of the hands and a pronounced antibacterial effect on the transient microflora, which will ensure the maintenance of natural non-pathogenic microflora for dermatological comfort and hygiene of hand skin.

The subject of series [2] is Escherichia coli. The series is described as above. In kind it is cell-based. The arrangement: key: ++: no growth; +: depressed growth in most areas; +: retarded growth in some areas; confluent growth-of test microorganisms. The note with it: 5% solution of sample in purified water with 0.5% Tween 80, 30 minutes; 48 hours at 37 degrees Celsius. The protocol:
as §1

Series [3] has as its system Micrococcus luteus. Described as above. The note with it: 5% solution of sample in purified water with 0.5% Tween 80, 30 minutes; 48 hours at 37 degrees Celsius. Type of series: cell-based. The arrangement: key: ++: no growth; +: depressed growth in most areas; +: retarded growth in some areas; confluent growth-of test microorganisms. The protocol:
as §1

In series [4] the test system is Candida albicans. The series is described as above. The arrangement: key: ++: no growth; +: depressed growth in most areas; +: retarded growth in some areas; confluent growth-of test microorganisms. The note with it: 5% solution of sample in purified water with 0.5% Tween 80, 30 minutes; 48 hours at 37 degrees Celsius. In kind it is cell-based. The protocol: as §1
Series [5] concerns Staphylococcus aureus. Described as above. The note with it: 5% solution of sample in purified water with 0.5% Tween 80, 30 minutes; 48 hours at 37 degrees Celsius. The arrangement: key: ++: no growth; +: depressed growth in most areas; +: retarded growth in some areas; confluent growth-of test microorganisms. Type of series: cell-based. The procedure: as §1
For series [6] the following is noted: octanol to water; average logP for the essential oil; source not stated; cited from earlier work.
In series [7] the test system is Staphylococcus epidermidis. In words: Effect of antibacterial basic samples on growth of hand skin microflora, double dilution method. Type of series: cell-based. The arrangement: key: +: confluent growth-of test microorganisms as in the control; +: retarded or depressed growth; -: no growth. The note with it: 5% solution of sample in purified water with 0.5% Tween 80, 30 minutes; 48 hours at 37 degrees Celsius. The procedure:
as §1

Series [8] deals with Escherichia coli. The description is as above. In kind it is cell-based. The arrangement: key: +: confluent growth-of test microorganisms as in the control; +: retarded or depressed growth; -: no growth. The note with it: 5% solution of sample in purified water with 0.5% Tween 80, 30 minutes; 48 hours at 37 degrees Celsius. The protocol:
as §1

The test system of series [9] is Micrococcus luteus. The description is as above. In kind it is cell-based. The arrangement: key: +: confluent growth-of test microorganisms as in the control; +: retarded or depressed growth; -: no growth. The note with it: 5% solution of sample in purified water with 0.5% Tween 80, 30 minutes; 48 hours at 37 degrees Celsius. The procedure: as §1
For series [10], the system named is Candida albicans. Described as above. The arrangement: key: +: confluent growth-of test microorganisms as in the control; +: retarded or depressed growth; -: no growth. Type of series: cell-based. The note with it: 5% solution of sample in purified water with 0.5% Tween 80, 30 minutes; 48 hours at 37 degrees Celsius. The protocol: as §1
The test system of series [11] is Staphylococcus aureus. The description is as above. In kind it is cell-based. The arrangement: key: +: confluent growth-of test microorganisms as in the control; +: retarded or depressed growth; -: no growth. The note with it: 5% solution of sample in purified water with 0.5% Tween 80, 30 minutes; 48 hours at 37 degrees Celsius. The protocol:
as §1

Turning to `CC12CCC(CC1)C(C)(C)O2` [1,8-cineol 0,15%, 1,8-cineol], the growth of test-strain entry is given as “-” in [1]; “+” in the series with Escherichia coli [2]; “-” in the series on Micrococcus luteus [3]; “-” in the series on Candida albicans [4]; “-” in the series on Staphylococcus aureus [5]. Moreover, in series [6], the logP is given as 2.82.
As to `CC(C)=CCC[C@](C)(O)[C@@H]1CC=C(C)CC1` [Alpha-bisabolol 0,10%, alpha-bisabolol], the growth of test-strain entry in [1] is recorded as “-”; with Escherichia coli [2] it was “+”; with Micrococcus luteus [3], “-”; in the series with Candida albicans [4], “-”; in the series with Staphylococcus aureus [5], “+”. For the same compound, in series [6], the logP is given as 3.80.
As for `CCO` [Ethyl alcohol 96%, Ethyl alcohol], the growth of test-strain result (in series [7]; with Escherichia coli [8]; in the series on Micrococcus luteus [9]; with Candida albicans [10]; in the series on Staphylococcus aureus [11]) was “++” in each case.
With `OO` [Hydrogen peroxide 3%, Hydrogen peroxide], the growth of test-strain result (in series [1]; with Escherichia coli [2]; in the series on Micrococcus luteus [3]; in the series with Candida albicans [4]; in the series with Staphylococcus aureus [5]) was “+” each time.
For the compound “Benzalkonium chloride [Benzalkonium chloride 0,1%]”, the growth of test-strain result (in [7]; in the series on Escherichia coli [8]; with Micrococcus luteus [9]; with Candida albicans [10]; with Staphylococcus aureus [11]) was “++” in each case.
